How the values were obtained:
Assay type in all cases: functional, cell-based
CCRF-CEM = assay: Cytotoxicity against human CEM cells after 3 days by Coulter counter analysis; conditions: 72 h
L1210 = assay: Cytotoxicity against mouse L1210 cells after 2 days by Coulter counter analysis; conditions: L1210, 48 h
FM3A = assay: Cytotoxicity against mouse FM3A cells after 2 days by Coulter counter analysis; conditions: 48 h
HeLa = assay: Cytotoxicity against human HeLa cells after 4 days by Coulter counter analysis; conditions: 96 h

| SMILES | IC50 (CCRF-CEM) [µM] | IC50 (L1210) [µM] | IC50 (FM3A) [µM] | IC50 (HeLa) [µM] |
| --- | --- | --- | --- | --- |
| Nc1ccc(/C=C2\SC(=O)N(Cc3ccc(Cl)cc3)C2=O)cc1 | 87 | 37 | 60 | 77 |
| C=C(Br)C(=O)Nc1ccc(/C=C2\SC(=O)N(Cc3cccc(Cl)c3)C2=O)cc1 | 3.7 | 3.4 | 6.1 | 8.9 |
| Nc1ccc(/C=C2\SC(=O)N(Cc3cccc(F)c3)C2=O)cc1 | 116 | 100 | 121 | 250 |
| C=C(Br)C(=O)Nc1ccc(/C=C2\SC(=O)N(CCc3ccccc3)C2=O)cc1 | 4.2 | 2.9 | 5.5 | 4.5 |
| C=C(Br)C(=O)Nc1ccc(/C=C2\SC(=O)N(Cc3ccc(C(C)(C)C)cc3)C2=O)cc1 | 0.83 | 1.6 | 4 | 2.7 |
| C=C(Br)C(=O)Nc1cccc(/C=C2\SC(=O)N(Cc3cccc(Cl)c3)C2=O)c1 | 1.4 | 1.1 | 1.7 | 2.5 |
| C=C(Br)C(=O)Nc1ccc(/C=C2\SC(=O)N(Cc3ccc(Cl)cc3)C2=O)cc1 | 2.8 | 3.4 | 5.1 | 2.3 |
| Nc1ccc(/C=C2\SC(=O)N(Cc3ccc(C(F)(F)F)cc3)C2=O)cc1 | 32 | 6 | 134 | 96 |
| CCN1C(=O)S/C(=C\c2ccc(N)cc2)C1=O | 91 | 82 | 76 | 108 |
| Nc1cccc(/C=C2\SC(=O)N(Cc3ccc(Cl)cc3)C2=O)c1 | > 250 | 218 | 246 | > 250 |
| Nc1ccc(/C=C2\SC(=O)N(CCc3ccccc3)C2=O)cc1 | > 250 | 217 | 215 | > 250 |
| Nc1ccc(/C=C2\SC(=O)N(Cc3ccccc3)C2=O)cc1 | 42 | 38 | 24 | 46 |
| Nc1cccc(/C=C2\SC(=O)N(Cc3ccc(C(F)(F)F)cc3)C2=O)c1 | > 250 | > 250 | > 250 | > 250 |
| Cc1ccc(CN2C(=O)S/C(=C\c3cccc(N)c3)C2=O)cc1 | > 250 | 176 | 158 | 98 |
| CN1C(=O)S/C(=C\c2ccc(N)cc2)C1=O | 62 | 99 | 107 | 97 |
| C=C(Br)C(=O)Nc1ccc(/C=C2\SC(=O)N(Cc3cccc(F)c3)C2=O)cc1 | 3.2 | 1.2 | 4 | 5.9 |
| Nc1cccc(/C=C2\SC(=O)N(Cc3ccc(F)cc3)C2=O)c1 | 87 | 142 | 140 | 86 |
| Nc1cccc(/C=C2\SC(=O)N(Cc3cccc(Cl)c3)C2=O)c1 | 195 | 211 | 164 | 250 |
| N[C@@H](Cc1ccc(N(CCCl)CCCl)cc1)C(=O)O [MELPHALAN] | 3.5 |  | 3.6 |  |

| SMILES | IC50 (CCRF-CEM) [µM] | IC50 (L1210) [µM] | IC50 (FM3A) [µM] | IC50 (HeLa) [µM] |
| --- | --- | --- | --- | --- |
| Nc1ccc(/C=C2\SC(=O)N(Cc3ccc(F)cc3)C2=O)cc1 | 111 | 24 | 36 | 186 |
| Nc1ccc(/C=C2\SC(=O)N(Cc3cccc(Cl)c3)C2=O)cc1 | 18 | 4.7 | 10 | 24 |
| Nc1cccc(/C=C2\SC(=O)N(CCc3ccccc3)C2=O)c1 | 106 | 142 | 68 | 250 |
| CC(C)(C)c1ccc(CN2C(=O)S/C(=C\c3cccc(N)c3)C2=O)cc1 | 165 | 223 | 188 | 145 |
| C=C(Br)C(=O)Nc1cccc(/C=C2\SC(=O)N(Cc3ccc(C)cc3)C2=O)c1 | 1.2 | 0.6 | 1 | 1.2 |
| C=C(Br)C(=O)Nc1cccc(/C=C2\SC(=O)N(CCc3ccccc3)C2=O)c1 | 0.94 | 1.3 | 2.2 | 3.5 |
| Cc1ccc(CN2C(=O)S/C(=C\c3ccc(N)cc3)C2=O)cc1 | > 250 | 94 | > 250 | > 250 |
| C=C(Br)C(=O)Nc1ccc(/C=C2\SC(=O)N(C)C2=O)cc1 | 0.36 | 0.19 | 0.75 | 0.87 |
| Nc1cccc(/C=C2\SC(=O)N(Cc3ccccc3)C2=O)c1 | > 250 | 233 | > 250 | > 250 |
| C=C(Br)C(=O)Nc1ccc(/C=C2\SC(=O)N(Cc3ccccc3)C2=O)cc1 | 2.3 | 1.1 | 3 | 1 |
| C=C(Br)C(=O)Nc1cccc(/C=C2\SC(=O)N(Cc3cccc(F)c3)C2=O)c1 | 0.69 | 0.59 | 0.69 | 2.7 |
| C=C(Br)C(=O)Nc1ccc(/C=C2\SC(=O)N(CC)C2=O)cc1 | 0.87 | 0.5 | 2.3 | 1.4 |
| C=C(Br)C(=O)Nc1cccc(/C=C2\SC(=O)N(Cc3ccc(Cl)cc3)C2=O)c1 | 1.4 | 0.94 | 1.6 | 2.7 |
| C=C(Br)C(=O)Nc1ccc(/C=C2\SC(=O)N(Cc3ccc(C(F)(F)F)cc3)C2=O)cc1 | 8 | 12 | 23 | 13 |
| C=C(Br)C(=O)Nc1cccc(/C=C2\SC(=O)N(Cc3ccc(C(C)(C)C)cc3)C2=O)c1 | 3 | 3.2 | 5.2 | 2.8 |
| Nc1cccc(/C=C2\SC(=O)N(Cc3cccc(F)c3)C2=O)c1 | 250 | 199 | > 250 | > 250 |
| C=C(Br)C(=O)Nc1ccc(/C=C2\SC(=O)N(Cc3ccc(C)cc3)C2=O)cc1 | 3.7 | 3.4 | 6.1 | 8.9 |
| CC(C)(C)c1ccc(CN2C(=O)S/C(=C\c3ccc(N)cc3)C2=O)cc1 | 66 | 94 | 80 | 53 |
| C=C(Br)C(=O)Nc1ccc(/C=C2\SC(=O)N(Cc3ccc(F)cc3)C2=O)cc1 | 2.4 | 2.2 | 4.6 | 2 |

— ChEMBL document CHEMBL2375251, “Anticancer activity of novel hybrid molecules containing 5-benzylidene thiazolidine-2,4-dione” (Eur J Med Chem, 2013)
